Among the data in patent US12077503B2, “Substituted cyclic amides and their use as herbicides” (FMC CORPORATION, priority 2015, dated 2024) are pest or weed control, plant injury and Corn plant response rating (crop injury, 0 = no effect, 100 = complete kill) values, retold here.

Common to all, as to assay type: in vivo
Experiment [1] concerns ragweed (common ragweed, Ambrosia elatior). Description: Test A postemergence. The note with it: Ambrosia artemisiifolia, post-emergence, 240 h, postemergence, read-out: Ragweed plant response rating; for pest or weed control at 125 g/ha: 125 g ai/ha, visual injury on 0 to 100 scale (0 no effect, 100 complete control), approx. 10 d. The gist of the method: (§1)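 Preemergence soil spray on seeded pots or post-emergence spray on 1–2 leaf plants, in loam–sand blend. Greenhouse ~10 d. Visual rating 0–100 against untreated plants.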

Experiment [2] has as its system Galium (catchweed bedstraw, Galium aparine). Description: Test A postemergence. To be noted: Galium, post-emergence, 240 h, postemergence; for pest or weed control at 125 g/ha: 125 g ai/ha, visual injury on 0 to 100 scale (0 no effect, 100 complete control); for pest or weed control at 500 g/ha: 500 g ai/ha. Put shortly: as §1
The next experiment has as its system corn (Zea mays). Description: Test A postemergence. The note with it: Zea mays, post-emergence, 240 h, postemergence; for plant injury at 125 g/ha: 125 g ai/ha, visual injury on 0 to 100 scale (0 no effect, 100 complete control). Put shortly: as §1
The subject of experiment [3] is barnyardgrass (Echinochloa crus-galli). Description: Test A postemergence. The note with it: Echinochloa crus-galli, post-emergence, 240 h, postemergence; for pest or weed control at 125 g/ha: 125 g ai/ha, visual injury on 0 to 100 scale (0 no effect, 100 complete control); for pest or weed control at 500 g/ha: 500 g ai/ha. Put shortly:
as §1

The next experiment concerns rice (Oryra sativa). Description: Test B flooded paddy test. To be noted: Oryza sativa, 250 g ai/ha, Flood; 0 to 100 scale where 0 is no effect and 100 is complete control; read-out: Rice plant response rating. The gist of the method: (§2)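 Response scored visually against untreated controls, 0 = no effect and 100 = complete control, 13–15 d after treatment in the greenhouse. Compounds added to paddy water held 3 cm above soil surface. Treatment given at 2-leaf stage.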

For experiment [4], the system named is ducksalad (Heteranthera limosa). Description: Test B flooded paddy test. To be noted: Heteranthera limosa, 250 g ai/ha, Flood; 0 to 100 scale where 0 is no effect and 100 is complete control; read-out: Ducksalad plant response rating. Put shortly: as §2
Experiment [5] has as its system sedge, umbrella (small-flower umbrella sedge, Cyperus difformis). The experiment can be described thus: Test B flooded paddy test. The note with it: Cyperus difformis, 250 g ai/ha, Flood; 0 to 100 scale where 0 is no effect and 100 is complete control; read-out: Sedge, Umbrella plant response rating. The gist of the method: as §2
In experiment [6] the test system is barnyardgrass (Echinochloa crus-galli). The experiment can be described thus: Test B flooded paddy test. To be noted: Echinochloa crus-galli, 250 g ai/ha, Flood; 0 to 100 scale where 0 is no effect and 100 is complete control; read-out: Barnyardgrass plant response rating. Put shortly:
as §2

Experiment [7] has as its system pigweed (Amaranthus retroflexus). Description: Test A preemergence. The note with it: Amaranthus retroflexus, pre-emergence, 240 h; for pest or weed control at 125 g/ha: 125 g ai/ha; for pest or weed control at 500 g/ha: 500 g ai/ha.
In experiment [8] the test system is ryegrass, Italian (Italian ryegrass, Lolium multiflorum). Description: Test A preemergence. To be noted: Lolium multiflorum, pre-emergence, 240 h; for pest or weed control at 125 g/ha: 125 g ai/ha; for pest or weed control at 500 g/ha: 500 g ai/ha. The gist of the method: as §1
The next experiment has as its system Kochia (Kochia scoparia). The experiment can be described thus: Test A preemergence. The note with it: Bassia scoparia, pre-emergence, 240 h; for pest or weed control at 125 g/ha: 125 g ai/ha; for pest or weed control at 500 g/ha: 500 g ai/ha. Put shortly:
as §1

Experiment [9] concerns ragweed (common ragweed, Ambrosia elatior). Description: Test A preemergence. To be noted: Ambrosia artemisiifolia, pre-emergence, 240 h; for pest or weed control at 125 g/ha: 125 g ai/ha; for pest or weed control at 500 g/ha: 500 g ai/ha. The gist of the method: as §1
The test system of experiment [10] is giant foxtail (Setaria faberii). Description: Test A preemergence. The note with it: Setaria faberi, pre-emergence, 240 h; for pest or weed control at 125 g/ha: 125 g ai/ha; for pest or weed control at 500 g/ha: 500 g ai/ha. Put shortly:
as §1

The test system of experiment [11] is barnyardgrass (Echinochloa crus-galli). Description: Test A preemergence. To be noted: Echinochloa crus-galli, pre-emergence, 240 h; for pest or weed control at 125 g/ha: 125 g ai/ha; for pest or weed control at 500 g/ha: 500 g ai/ha. Put shortly:
as §1

The mark [12] stands for this setting: approx. 10 d, read-out: Galium plant response rating.
[13] abbreviates: approx. 10 d, read-out: Corn plant response rating.
The mark [14] stands for this setting: approx. 10 d, read-out: Barnyardgrass plant response rating.

The structures appear in SMILES notation. Where two headings read alike, the source gives them in different places.

For `CN1CC(c2cccc(Br)c2)C(C(=O)Nc2ccccc2F)C1=O` (centres unmarked) [Compound 1132], the pest or weed control at 125 g/ha in experiment [1] stood at 0%; in experiment [2] (setting [12]), 0%; in experiment [3] (setting [14]), 90%; in experiment [7] (preemergence, 0 to 100 scale where 0 is no effect and 100 is complete control, approx. 10 d, read-out: Pigweed plant response rating), 0%; in [8] (preemergence, 0 to 100 scale where 0 is no effect and 100 is complete control, approx. 10 d, read-out: Ryegrass, Italian plant response rating), 30%; in the experiment with Kochia (Kochia scoparia) (preemergence, 0 to 100 scale where 0 is no effect and 100 is complete control, approx. 10 d, read-out: Kochia plant response rating), 0%. The pest or weed control at 125 g/ha in experiment [9] (preemergence, 0 to 100 scale where 0 is no effect and 100 is complete control, approx. 10 d, read-out: Ragweed plant response rating) stood at 0%; in experiment [10] (preemergence, 0 to 100 scale where 0 is no effect and 100 is complete control, approx. 10 d, read-out: Foxtail, Giant plant response rating), 100%; in experiment [11] (preemergence, 0 to 100 scale where 0 is no effect and 100 is complete control, approx. 10 d, read-out: Barnyardgrass plant response rating) it was 90%. Also, the pest or weed control at 500 g/ha in experiment [1] (500 g ai/ha, 0 to 100 scale, 0 is no effect, 100 is complete control) is 0%; in [2] (0 to 100 scale, 0 is no effect, 100 is complete control, read-out: Galium plant response rating) it was 30%; in experiment [3] (0 to 100 scale, 0 is no effect, 100 is complete control, read-out: Barnyardgrass plant response rating), 90%; in [7] (preemergence, 0 to 100 scale where 0 is no effect and 100 is complete control, read-out: Pigweed plant response rating), 0%; in experiment [8] (preemergence, 0 to 100 scale where 0 is no effect and 100 is complete control, read-out: Ryegrass, Italian plant response rating) it was 50%; in the experiment with Kochia (Kochia scoparia) (preemergence, 0 to 100 scale where 0 is no effect and 100 is complete control, read-out: Kochia plant response rating), 0%. The pest or weed control at 500 g/ha in experiment [9] (preemergence, 0 to 100 scale where 0 is no effect and 100 is complete control, read-out: Ragweed plant response rating) amounted to 0%; in [10] (preemergence, 0 to 100 scale where 0 is no effect and 100 is complete control, read-out: Foxtail, Giant plant response rating), 100%; in experiment [11] (preemergence, 0 to 100 scale where 0 is no effect and 100 is complete control, read-out: Barnyardgrass plant response rating) it was 90%. In the experiment with corn (Zea mays) (setting [13]), the plant injury at 125 g/ha was 60%. Also, the plant injury at 500 g/ha in the experiment with corn (Zea mays) (500 g ai/ha, 0 to 100 scale, 0 is no effect, 100 is complete control, read-out: Corn plant response rating) came out at 80%. For the same molecule, the pest or weed control at 250 g/ha in the experiment on rice (Oryra sativa) was found to be 15%; in experiment [4] it was 90%; in [5], 40%; in experiment [6] it was 60%.

Consider `O=C(Nc1cccc(F)c1F)[C@H]1C(=S)NC[C@@H]1c1ccc(C(F)(F)F)cc1` (racemic) [Compound 1048], for which the pest or weed control at 125 g/ha in [1] was found to be 0%; in experiment [2] (setting [12]) it was 0%; in [3] (setting [14]), 50%; in experiment [7] (Preemergence, visual injury rating after approximately 10 d, read-out: Pigweed plant response rating (0 to 100 scale, 0 is no effect, 100 is complete control)), 80%; in [8] (Preemergence, visual injury rating after approximately 10 d, read-out: Ryegrass, Italian plant response rating (0 to 100 scale, 0 is no effect, 100 is complete control)) it was 20%; in the experiment with Kochia (Kochia scoparia) (Preemergence, visual injury rating after approximately 10 d, read-out: Kochia plant response rating (0 to 100 scale, 0 is no effect, 100 is complete control)) it was 90%. The pest or weed control at 125 g/ha in experiment [9] (Preemergence, visual injury rating after approximately 10 d, read-out: Ragweed plant response rating (0 to 100 scale, 0 is no effect, 100 is complete control)) is 50%; in experiment [10] (Preemergence, visual injury rating after approximately 10 d, read-out: Foxtail, Giant plant response rating (0 to 100 scale, 0 is no effect, 100 is complete control)), 90%; in [11] (Preemergence, visual injury rating after approximately 10 d, read-out: Barnyardgrass plant response rating (0 to 100 scale, 0 is no effect, 100 is complete control)), 90%. For the same molecule, the pest or weed control at 500 g/ha in experiment [2] (visual injury, 0 to 100 scale (0 no effect, 100 complete control), approx. 10 d, read-out: Plant response rating, Galium) amounted to 60%; in [3] (visual injury, 0 to 100 scale (0 no effect, 100 complete control), approx. 10 d, read-out: Plant response rating, Barnyardgrass) it was 80%; in experiment [7] (preemergence, visual injury rating about 10 d after treatment, 0 to 100 scale (0 no effect, 100 complete control), read-out: Pigweed plant response rating), 90%; in experiment [8] (preemergence, visual injury rating about 10 d after treatment, 0 to 100 scale (0 no effect, 100 complete control), read-out: Ryegrass, Italian plant response rating) it was 40%; in the experiment with Kochia (Kochia scoparia) (preemergence, visual injury rating about 10 d after treatment, 0 to 100 scale (0 no effect, 100 complete control), read-out: Kochia plant response rating), 90%; in experiment [9] (preemergence, visual injury rating about 10 d after treatment, 0 to 100 scale (0 no effect, 100 complete control), read-out: Ragweed plant response rating), 80%. For the same molecule, the pest or weed control at 500 g/ha in [10] (preemergence, visual injury rating about 10 d after treatment, 0 to 100 scale (0 no effect, 100 complete control), read-out: Foxtail, Giant plant response rating) is 90%; in [11] (preemergence, visual injury rating about 10 d after treatment, 0 to 100 scale (0 no effect, 100 complete control), read-out: Barnyardgrass plant response rating) it was 90%. Also, in the experiment on corn (Zea mays) (setting [13]), the plant injury at 125 g/ha turned out to be 20%. Further, the Corn plant response rating (crop injury, 0 = no effect, 100 = complete kill) at 500 g/ha in the experiment with corn (Zea mays) (500 g ai/ha, visual injury, 0 to 100 scale (0 no effect, 100 complete control), approx. 10 d) worked out at 40%. Also, the pest or weed control at 250 g/ha in the experiment on rice (Oryra sativa) stood at 0%; in [4] it was 50%; in [5], 0%; in [6], 30%.
